Molecular target: Botulinum neurotoxin type A (Clostridium botulinum, UniProt P0DPI0)
Sequence (P0DPI0 2-448 limits assumed): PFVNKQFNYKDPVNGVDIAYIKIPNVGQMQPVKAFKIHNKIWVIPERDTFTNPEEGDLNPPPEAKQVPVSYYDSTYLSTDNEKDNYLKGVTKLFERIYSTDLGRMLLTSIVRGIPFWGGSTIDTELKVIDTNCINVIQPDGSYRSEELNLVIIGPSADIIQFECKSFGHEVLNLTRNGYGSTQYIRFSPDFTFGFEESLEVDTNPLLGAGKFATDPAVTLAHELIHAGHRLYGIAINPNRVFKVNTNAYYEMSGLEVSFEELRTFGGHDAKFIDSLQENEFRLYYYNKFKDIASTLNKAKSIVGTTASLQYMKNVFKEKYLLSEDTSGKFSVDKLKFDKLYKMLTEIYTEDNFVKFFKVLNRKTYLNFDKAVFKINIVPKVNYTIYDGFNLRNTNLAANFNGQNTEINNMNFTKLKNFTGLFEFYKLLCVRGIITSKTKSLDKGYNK

## COC(=O)c1ccc(O)c2nc3c(C=O)c(O)cc(O)c3nc12 [LOMOFUNGIN]
  Ki: 25 µM
